Laboratory results published in patent publication US12472231B2 (priority 2020, dated 2025).
Values after ≈ are worked out from the molar mass of the structure shown. Where a SMILES comes first, the peptide text is derived from it.

Legend:
SARS-CoV-2 [1] = tested on: SARS-CoV-2
rhinovirus [2] = tested on: rhinovirus
rhinovirus [3] = tested on: rhinovirus; remark: listed apart in the source
MERS-CoV [4] = type: binding
rhinovirus [5] = type: binding; conditions: peptide coated on ELISA plate, bound virus by RT-qPCR
A(H1N1)pdm09 virus [6] = type: binding
A(H7N9) virus [7] = tested on: A(H7N9) virus
SARS-CoV [8] = type: binding
[9] = tested on: A(H1N1)pdm09 virus RNP release in MDCK cells
A(H7N9) virus [10] = tested on: A(H7N9) virus; remark: listed apart in the source
MERS-CoV [11] = tested on: MERS-CoV
A(H1N1)pdm09 virus [12] = type: cell-based
SARS-CoV [13] = tested on: SARS-CoV
A(H7N9) virus [14] = type: binding
[15] = tested on: virus-host endosomal acidification; type: cell-based
MERS-CoV S protein = MERS-CoV S protein (Middle East respiratory syndrome-related coronavirus, UniProt K9N5Q8)
MERS-CoV [16] = tested on: MERS-CoV; remark: listed apart in the source
A(H1N1)pdm09 virus [17] = tested on: A(H1N1)pdm09 virus
H1N1 HA1 protein = H1N1 HA1 protein (Influenza A virus, UniProt C3W5S1)
SARS-CoV-2 [18] = tested on: SARS-CoV-2; remark: listed apart in the source
SARS-CoV-2 [19] = type: binding
[20] = tested on: endosomal acidification in MDCK cells; type: cell-based, canine

Chain of H1N1 HA1 protein (C3W5S1 18-344 limits assumed): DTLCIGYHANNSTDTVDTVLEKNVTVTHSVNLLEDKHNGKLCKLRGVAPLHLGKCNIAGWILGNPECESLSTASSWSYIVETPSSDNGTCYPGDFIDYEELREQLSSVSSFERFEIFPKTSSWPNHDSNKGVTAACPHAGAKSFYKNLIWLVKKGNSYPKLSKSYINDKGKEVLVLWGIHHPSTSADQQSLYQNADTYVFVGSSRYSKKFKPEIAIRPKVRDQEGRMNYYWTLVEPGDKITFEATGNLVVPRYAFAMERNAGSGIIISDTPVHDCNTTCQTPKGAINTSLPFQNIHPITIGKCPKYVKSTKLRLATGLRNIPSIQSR
Chain of MERS-CoV S protein (K9N5Q8 18-1353 limits assumed): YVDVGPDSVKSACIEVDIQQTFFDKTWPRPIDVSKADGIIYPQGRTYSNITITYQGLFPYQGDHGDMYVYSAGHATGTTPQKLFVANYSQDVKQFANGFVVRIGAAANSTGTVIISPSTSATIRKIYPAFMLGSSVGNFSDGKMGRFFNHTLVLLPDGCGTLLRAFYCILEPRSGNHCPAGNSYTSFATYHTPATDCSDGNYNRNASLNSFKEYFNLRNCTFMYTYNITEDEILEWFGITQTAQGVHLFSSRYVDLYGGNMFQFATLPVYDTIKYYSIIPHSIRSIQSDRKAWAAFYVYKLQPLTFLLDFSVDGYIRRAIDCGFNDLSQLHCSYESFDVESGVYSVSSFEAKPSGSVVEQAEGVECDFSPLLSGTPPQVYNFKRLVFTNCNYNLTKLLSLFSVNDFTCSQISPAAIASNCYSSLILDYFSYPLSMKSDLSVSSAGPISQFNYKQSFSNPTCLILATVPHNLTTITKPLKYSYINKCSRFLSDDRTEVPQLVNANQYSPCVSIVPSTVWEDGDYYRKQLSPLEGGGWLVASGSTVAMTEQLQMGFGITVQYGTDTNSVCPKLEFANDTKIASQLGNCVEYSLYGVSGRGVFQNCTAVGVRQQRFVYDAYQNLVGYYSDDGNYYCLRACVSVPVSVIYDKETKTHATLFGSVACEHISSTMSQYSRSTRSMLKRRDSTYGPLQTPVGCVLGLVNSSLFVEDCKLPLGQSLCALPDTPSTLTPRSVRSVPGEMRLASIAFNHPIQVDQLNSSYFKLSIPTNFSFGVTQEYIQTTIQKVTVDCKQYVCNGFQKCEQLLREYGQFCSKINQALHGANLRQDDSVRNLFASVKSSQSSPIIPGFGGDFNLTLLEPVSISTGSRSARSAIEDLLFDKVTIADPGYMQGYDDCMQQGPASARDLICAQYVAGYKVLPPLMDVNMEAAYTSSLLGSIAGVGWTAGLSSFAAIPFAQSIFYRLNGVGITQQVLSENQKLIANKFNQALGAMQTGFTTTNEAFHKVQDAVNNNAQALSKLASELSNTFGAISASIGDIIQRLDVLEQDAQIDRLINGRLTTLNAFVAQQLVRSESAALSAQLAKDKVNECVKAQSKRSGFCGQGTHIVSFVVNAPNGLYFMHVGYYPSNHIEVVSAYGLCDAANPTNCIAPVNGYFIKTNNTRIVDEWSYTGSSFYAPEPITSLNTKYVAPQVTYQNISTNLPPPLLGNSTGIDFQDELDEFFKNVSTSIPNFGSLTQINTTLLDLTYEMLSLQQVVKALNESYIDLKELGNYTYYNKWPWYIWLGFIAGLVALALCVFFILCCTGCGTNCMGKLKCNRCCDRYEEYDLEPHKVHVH

CC[C@H](C)[C@H](NC(=O)[C@H](C)NC(=O)CNC(=O)[C@@H](N)CC(N)=O)C(=O)N[C@@H](CS)C(=O)N[C@@H](Cc1c[nH]c2ccccc12)C(=O)NCC(=O)N1CCC[C@H]1C(=O)N[C@@H](CS)C(=O)N1CCC[C@H]1C(=O)N[C@H](C(=O)N[C@@H](C)C(=O)N[C@@H](Cc1ccccc1)C(=O)N[C@@H](CCCNC(=N)N)C(=O)N[C@@H](CCC(N)=O)C(=O)N[C@H](C(=O)NCC(=O)N[C@@H](CC(N)=O)C(=O)N[C@@H](CS)C(=O)NCC(=O)N[C@@H](Cc1c[nH]cn1)C(=O)N[C@@H](Cc1ccccc1)C(=O)N[C@@H](CCCCN)C(=O)N[C@H](C(=O)N[C@@H](CCCNC(=N)N)C(=O)N[C@@H](CS)C(=O)N[C@@H](CS)C(=O)N[C@@H](CCCCN)C(=O)N[C@H](C(=O)N[C@@H](CCCNC(=N)N)C(=O)O)[C@@H](C)CC)C(C)C)[C@@H](C)CC)[C@@H](C)O [P9, reference compound]
IC50 against SARS-CoV-2 (SARS-CoV-2 [1]): 2.4 µg/mL (≈ 0.719 µM) | IC50 against parainfluenza virus 3 (parainfluenza virus 3): > 25.0 µg/mL

CC[C@H](C)[C@H](NC(=O)[C@H](C)NC(=O)CNC(=O)[C@@H](N)CC(N)=O)C(=O)N[C@@H](CS)C(=O)N[C@@H](Cc1c[nH]c2ccccc12)C(=O)NCC(=O)N1CCC[C@H]1C(=O)N[C@@H](CS)C(=O)N1CCC[C@H]1C(=O)N[C@H](C(=O)N[C@@H](C)C(=O)N[C@@H](Cc1ccccc1)C(=O)N[C@@H](CCCNC(=N)N)C(=O)N[C@@H](CCC(N)=O)C(=O)N[C@H](C(=O)NCC(=O)N[C@@H](CC(N)=O)C(=O)N[C@@H](CS)C(=O)NCC(=O)N[C@@H](CCCNC(=N)N)C(=O)N[C@@H](Cc1ccccc1)C(=O)N[C@@H](CCCNC(=N)N)C(=O)N[C@H](C(=O)N[C@@H](CCCNC(=N)N)C(=O)N[C@@H](CS)C(=O)N[C@@H](CS)C(=O)N[C@@H](CCCNC(=N)N)C(=O)N[C@H](C(=O)N[C@@H](CCCNC(=N)N)C(=O)O)[C@@H](C)CC)C(C)C)[C@@H](C)CC)[C@@H](C)O [P9R] (H-NGAICWGPCPTAFRQIGNCGRFRVRCCRIR-OH)
inhibition against rhinovirus compared with P9 (rhinovirus [2]): significantly stronger inhibition | inhibition of viral replication (viral RNA copies in supernatants) (rhinovirus [3]): > 20 fold | binding to MERS-CoV (MERS-CoV [4]): could also bind | binding to rhinovirus (rhinovirus [5]): could also bind | binding to A(H1N1)pdm09 virus (A(H1N1)pdm09 virus [6]): could efficiently bind | inhibition against A(H7N9) virus compared with P9 (A(H7N9) virus [7]): significantly stronger inhibition | binding to SARS-CoV (SARS-CoV [8]): could also bind | inhibition of viral RNP release into nuclei [9]: could inhibit viral RNP release into nuclei | inhibition of viral replication (viral RNA copies in supernatants) (A(H7N9) virus [10]): > 20 fold | inhibition against MERS-CoV compared with P9 (MERS-CoV [11]): significantly stronger inhibition | inhibition against A(H1N1)pdm09 virus compared with P9 (A(H1N1)pdm09 virus [12]): significantly stronger inhibition | IC50 against SARS-CoV-2 (SARS-CoV-2 [1]): 0.9 µg/mL (≈ 0.264 µM) | inhibition of viral replication (viral RNA copies in supernatants) (SARS-CoV [13]): 1000 fold | binding to A(H7N9) virus (A(H7N9) virus [14]): could also bind | inhibition of virus-host endosomal acidification [15]: could efficiently inhibit the virus-host endosomal acidification | binding to viral protein MERS-CoV S (MERS-CoV S protein): could also bind | inhibition of viral replication (viral RNA copies in supernatants) (MERS-CoV [16]): 1000 fold | inhibition of viral replication (viral RNA copies in supernatants) (A(H1N1)pdm09 virus [17]): > 20 fold | IC50 against parainfluenza virus 3 (parainfluenza virus 3): > 25.0 µg/mL | binding to viral protein H1N1 HA1 (H1N1 HA1 protein): could also bind | inhibition of viral replication (viral RNA copies in supernatants) (SARS-CoV-2 [18]): 1000 fold | binding to SARS-CoV-2 (SARS-CoV-2 [19]): could efficiently bind | inhibition of endosomal acidification in live cells [20]: could more significantly inhibit endosomal acidification

CO/C1=C\C(C)=C\[C@@H](C)[C@@H](O)[C@@H](C)C/C(C)=C/C=C/[C@H](OC)[C@@H]([C@@H](C)[C@@H](O)[C@H](C)[C@@]2(O)C[C@@H](O)[C@H](C)[C@@H](C(C)C)O2)OC1=O [bafilomycin A1, reference compound]
inhibition of virus-host endosomal acidification [15]: could efficiently inhibit the virus-host endosomal acidification
